This note sets out measurements from publication PMC6010002, “Synthesis, pharmacology and molecular docking on multifunctional tacrine-ferulic acid hybrids as cholinesterase inhibitors against Alzheimer’s disease” (Journal of Enzyme Inhibition and Medicinal Chemistry, 2018).

Read-outs that look alike come from different tables or passages of the source.

One may read the IC50 as the concentration that inhibits the measured activity by half. A low value points to inhibition by little substance.

In series [1] the target is T1, AChE (EC 3.1.1.7) from electric eel (Electrophorus electricus, UniProt O42275).
T1 construct: AChE (EC 3.1.1.7, Type VI-S, from electric eel, C3389); purchased Sigma-Aldrich C3389; host or cells: electric eel (natural source)
T1 sequence (O42275 24-633): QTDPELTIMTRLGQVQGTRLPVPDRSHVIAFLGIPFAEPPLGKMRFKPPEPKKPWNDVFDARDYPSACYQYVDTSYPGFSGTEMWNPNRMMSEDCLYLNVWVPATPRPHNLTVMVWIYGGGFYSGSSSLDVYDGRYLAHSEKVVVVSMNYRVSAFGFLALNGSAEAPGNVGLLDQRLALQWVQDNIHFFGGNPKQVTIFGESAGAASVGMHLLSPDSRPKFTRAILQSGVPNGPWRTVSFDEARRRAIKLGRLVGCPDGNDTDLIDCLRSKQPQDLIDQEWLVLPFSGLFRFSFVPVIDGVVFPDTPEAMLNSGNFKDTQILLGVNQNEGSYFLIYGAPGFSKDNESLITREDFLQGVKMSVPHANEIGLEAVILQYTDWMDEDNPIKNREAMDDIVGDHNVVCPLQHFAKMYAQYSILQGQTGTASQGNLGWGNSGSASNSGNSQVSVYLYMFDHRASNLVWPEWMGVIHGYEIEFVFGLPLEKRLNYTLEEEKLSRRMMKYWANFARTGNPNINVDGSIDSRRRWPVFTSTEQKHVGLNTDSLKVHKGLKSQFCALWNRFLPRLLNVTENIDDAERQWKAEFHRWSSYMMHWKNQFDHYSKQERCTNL
Kind of series: biochemical. Conditions: for SI (selectivity index, AChE IC50/BuChE IC50): eeAChE IC50 / eqBuChE IC50; for IC50: eeAChE, mean ± SEM of triplicate independent experiments. On the procedure:
(§1) AChE (EC 3.1.1.7, Type VI-S, from electric eel, C3389) and BuChE (EC 3.1.1.8, from equine serum, C0663), 5,5’-dithiobis (2-nitrobenzoic acid) (DTNB, D218200), acetylthiocholine iodide (ATC, A5751) and butyrylthiocholine iodide (BTC, B3253) used as substrates were obtained from Sigma-Aldrich (St. Louis, MO).
(§2) The inhibitory capacity of the synthesised compounds on AChE and BuChE biological activity in this paper were evaluated according to our previously reported method. Briefly, AChE/BuChE stock solution was diluted with 0.2 M phosphate buffer pH 8.0 to give 2.5 units/mL (for electrophorus electricus (eeAChE) and equine serum (eqBuChE)). ATC/BTC iodide solution (0.075 M) was dissolved in deionized water. […] The assay solution was prepared as follows: potassium dihydrogen phosphate (1.36 g, 10 mmol) was dissolved in 100 ml of water. The pH of the solution was then adjusted to 8.0 ± 0.1 with KOH. Stock solutions of the test samples were dissolved in ethanol to give a final concentration of 10 − 4^ M when diluted to the final volume of 3.32 ml. For each compound, a dilution series of five different concentrations 10 − 5–10 − 9^9 M were prepared.
(§3) For measurement, a cuvette containing 3 mL of phosphate buffer, 100 μL of eeAChE or eqBuChE, 100 μL of DTNB, and 100 μL of the test compound solution was added in sequence. The reaction was initiated by adding 20 μL of ATC or BTC and the solution was mixed immediately. […] For the reference value, 100 μL of water was replaced for the test compound solution. For the blank control, additional 100 μL of water was also replaced for the enzyme solution. The measurement of each concentration was assayed in triplicate. GraphPad Prism 5 (GraphPad Software, Inc., La Jolla, CA) was used for data processing. The inhibition curve was fitted by plotting percentage enzyme activity (100% for the reference) versus the logarithm of test compound concentration. The half maximal inhibitory concentration (IC50) values were calculated according to the curve and the data were shown in mean ± SEM.
(§4) Inhibitory activities were presented as IC50 (nM).

Series [2] deals with T2, BuChE (EC 3.1.1.8) from horse serum (Equus caballus, UniProt P81908).
T2 construct: BuChE (EC 3.1.1.8, from equine serum, C0663); purchased Sigma-Aldrich C0663; host or cells: equine serum (natural source)
T2 sequence (P81908 whole entry): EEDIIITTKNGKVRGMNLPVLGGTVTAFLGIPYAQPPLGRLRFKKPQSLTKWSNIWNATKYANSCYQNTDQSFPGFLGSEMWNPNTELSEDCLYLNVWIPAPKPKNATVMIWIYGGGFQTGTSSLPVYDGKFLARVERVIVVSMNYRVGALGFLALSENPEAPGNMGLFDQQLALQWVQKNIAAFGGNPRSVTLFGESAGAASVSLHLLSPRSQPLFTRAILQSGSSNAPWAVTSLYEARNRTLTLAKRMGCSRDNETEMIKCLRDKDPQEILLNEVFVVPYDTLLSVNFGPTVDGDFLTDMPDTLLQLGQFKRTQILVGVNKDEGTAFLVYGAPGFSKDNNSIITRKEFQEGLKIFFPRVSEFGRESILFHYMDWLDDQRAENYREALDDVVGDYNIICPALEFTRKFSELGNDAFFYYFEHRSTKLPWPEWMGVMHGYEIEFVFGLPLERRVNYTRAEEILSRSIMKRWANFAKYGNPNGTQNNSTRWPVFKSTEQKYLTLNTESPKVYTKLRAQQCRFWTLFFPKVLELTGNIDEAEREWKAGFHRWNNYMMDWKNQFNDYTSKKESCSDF
Description: biochemical. Conditions: eqBuChE, mean ± SEM of triplicate independent experiments. The procedure: as §1, §2, §3, §4

In series [3] the test system is scopolamine-induced cognition-impaired adult ICR mice. Description: Morris water maze in scopolamine-induced cognition-impaired mice. Type of series: in vivo. Conditions: 30 mg/kg oral, scopolamine 1 mg/kg i.p., mean ± SEM n = 6. On the procedure: Behavioral studies were performed using the Morris water maze[25] according to our method reported previously. Adult male imprinting control region (ICR) mice (8–10 weeks old, weight 20–25 g) were obtained from the Yangzhou University Medical Center (Yangzhou, China). All animal handling and experimental protocols were approved by the Institutional Animal Care and Use Committee of the China Pharmaceutical University. Scopolamine hydrobromide was purchased from Aladdin Reagents (S107418, Shanghai, China).
A circular pool (120 cm in diameter, 60 cm height) which was fixed with an escape platform (10 cm diameter) and filled to a depth of 40 cm fresh water (kept at 25 °C) composed the water maze and this water maze placed in a lit room was used to evaluate the cognition function and memory capacity of mice according to our previously described method[24] . After five days of learning and memory training, a probe trial was performed on day 6. For the evaluation of cognitive function, each mouse was individually trained on a visible-platform (labeled by a small flag, 5 cm tall) for two days and was followed by a hidden-platform version (placed 1 cm below the surface of the water) of the water maze from day 3 to day 5. All mice were subjected to two training trials daily, each of which lasted for 90 s. The time for each mouse to find the platform (a successful escape) was recorded. […] On the last day (day 6), a probe trial was given to the mice in which the platform was removed from the pool and each mouse was allowed 90 s to search for the platform. The time the animals spent to reach the missing platform location and the number of times they crossed that location were recorded.
Data for the time of escape latency, the swimming trajectory, and the number of visual platform crossings were recorded by Panlab SMART 3.0 (Panlab, S.L.U, Spain) and GraphPad Prism 5 was used to evaluate the level of memory retention.

Another series concerns adult male ICR mice. The format is in vivo. Conditions: serum, 3 mg/100 g body weight, mean ± SEM n = 6. On the procedure: . Heparinised serum was obtained from the retrobulbar plexus 8, 22, and 36 h after the administration and were subjected to hepatotoxicity evaluation. The activity of aspartate aminotransferase (AST) and alanine aminotransferase (ALT), two indicators of liver damage, was determined by a commercial assay kit (EF551 and EF550 for ALT, EH027 and EF548 for AST, Wako, Japan). The data were analysed by Biochemical Analyzer (HITACHI 7020, Japan).
Mice were sacrificed 1 h after the collection of retrobulbar blood and livers were removed for morphological studies by using the immunohistochemical method. Two 3 mm sections of each liver extending from the hilus to the margin of the left lateral lobe were isolated using ultra-thin semiautomatic microtome (Leica RM2245, Germany) and placed in 10% buffered formaldehyde immediately, fixed for two days, and embedded together in one paraffin block by using paraffin embedding station (Leica EG1150H, Germany). Subsequently, 5 μm sections were prepared from these paraffin blocks. They were deparaffinated and stained with hematoxylin and eosin (H&E) for histopathological examinations.

The test system of another series is HepG2 cells. Conditions: 24 h, MTT, mean ± SEM n = 3. On the procedure:
To determine the possible drug-induced hepatotoxicity, 10d and 10g were selected for preliminary hepatotoxicity evaluation. Heparinised serum was obtained after the treatment of the compounds at 8, 22, and 36 h, respectively. […] Additionally, immunohistochemical staining was performed on the liver tissues for the histopathological study.
Methods for Cell Viability Assay. The human hepatocellular HepG2 cells were […]
Cells were seeded into 96-well plates at a density of 3
37 °C for the following experiments. For cytotoxicity test, cells were treated with 0.05- […]
Cell viability was measured by 3-(4,5- dimethylthiazol-2-yl)-2,5-diphenyltetrazolium bromide (MTT) analysis. In brief, 15 µL of MTT was added into each well and incubated at 37 °C for 4 h. The […]
viability was calculated and presented by the percentage of vehicle-treated group.

For `COc1cc(/C=C/C(=O)NCCNc2c3c(nc4ccccc24)CCCC3)ccc1OCc1ccccc1` [Compound 10a, (E)-3–(4-(benzyloxy)-3-methoxyphenyl)-N-(2-((1,2,3,4-tetrahydroacridin-9-yl)amino)ethyl)acrylamide], in series [1], the “SI (selectivity index, AChE IC50/BuChE IC50)” value is recorded as 0.4 and it took 92.2 ± 18.3 nM to reach half-maximal inhibition (IC50). For the same compound, the IC50 in series [2] stood at 215 ± 39.5 nM.

`COc1cc(/C=C/C(=O)NCCNc2c3c(nc4ccccc24)CCCC3)ccc1OCc1ccc(F)cc1` [Compound 10b, (E)-3–(4-((4-fluorobenzyl)oxy)-3-methoxyphenyl)-N-(2-((1,2,3,4-tetrahydroacridin-9-yl)amino)ethyl)acrylamide]: in series [1], the “SI (selectivity index, AChE IC50/BuChE IC50)” value came out at 0.7. Moreover, the IC50 in series [1] amounted to 115 ± 31.2 nM; in series [2], 163 ± 16.6 nM.

`COc1cc(/C=C/C(=O)NCCNc2c3c(nc4ccccc24)CCCC3)ccc1OCc1ccc(Cl)cc1` [Compound 10c, (E)-3–(4-((4-chlorobenzyl)oxy)-3-methoxyphenyl)-N-(2-((1,2,3,4-tetrahydroacridin-9-yl)amino)ethyl)acrylamide]: the “SI (selectivity index, AChE IC50/BuChE IC50)” value in series [1] worked out at 1.6. In addition, the IC50 in series [1] came out at 101 ± 14.6 nM; in series [2], 62.5 ± 9.9 nM.

As for `COc1cc(/C=C/C(=O)NCCNc2c3c(nc4ccccc24)CCCC3)ccc1OCc1ccccc1C` [Compound 10e, (E)-3–(3-methoxy-4-((2-methylbenzyl)oxy)phenyl)-N-(2-((1,2,3,4-tetrahydroacridin-9-yl)amino)ethyl)acrylamide], in series [1], the “SI (selectivity index, AChE IC50/BuChE IC50)” value came out at 0.7 and half-maximal inhibition (IC50) required 64.5 ± 7.4 nM. The compound further displayed an IC50 in series [2] of 98.6 ± 19.1 nM.

Turning to `COc1cc(/C=C/C(=O)NCCNc2c3c(nc4ccccc24)CCCC3)ccc1OCc1cccc(C)c1` [Compound 10f, (E)-3–(3-methoxy-4-((3-methylbenzyl)oxy)phenyl)-N-(2-((1,2,3,4-tetrahydroacridin-9-yl)amino)ethyl)acrylamide], in series [1], the “SI (selectivity index, AChE IC50/BuChE IC50)” value stood at 0.2 and the IC50 amounted to 63.2 ± 13.5 nM. In addition, in series [2], the IC50 was 257 ± 3.7 nM.

In the case of `COc1cc(/C=C/C(=O)NCCNc2c3c(nc4ccccc24)CCCC3)ccc1OCc1ccc(C)cc1` [Compound 10h, (E)-3–(3-methoxy-4-((4-methylbenzyl)oxy)phenyl)-N-(2-((1,2,3,4-tetrahydroacridin-9-yl)amino)ethyl)acrylamide], in series [1], the “SI (selectivity index, AChE IC50/BuChE IC50)” value is 0.9 and half-maximal inhibition (IC50) required 140 ± 34.4 nM. Besides, the 50% inhibitory concentration (IC50) in series [2] worked out at 147 ± 22.4 nM.

On to `COc1cc(/C=C/C(=O)NCCNc2c3c(nc4ccccc24)CCCC3)ccc1OCc1ccc(C(C)(C)C)cc1` [Compound 10i, (E)-3–(4-((4-(tert-butyl)benzyl)oxy)-3-methoxyphenyl)-N-(2-((1,2,3,4-tetrahydroacridin-9-yl)amino)ethyl)acrylamide], for which, in series [1], the “SI (selectivity index, AChE IC50/BuChE IC50)” value was 1.8 and the IC50 is 284 ± 59.2 nM. Further, the IC50 in series [2] is 158 ± 22.8 nM.

Take `COc1cc(/C=C/C(=O)NCCNc2c3c(nc4ccccc24)CCCC3)ccc1OCc1ccc(C(F)(F)F)cc1` [Compound 10k, (E)-3–(3-methoxy-4-((4-(trifluoromethyl)benzyl)oxy)phenyl)-N-(2-((1,2,3,4-tetrahydroacridin-9-yl)amino)ethyl)acrylamide]: in series [1], the “SI (selectivity index, AChE IC50/BuChE IC50)” value was 2.4 and the IC50 worked out at 129 ± 16.5 nM. This compound came in with an IC50 in series [2] of 52.7 ± 6.3 nM.

`COc1cccc(COc2ccc(/C=C/C(=O)NCCNc3c4c(nc5ccccc35)CCCC4)cc2OC)c1` [Compound 10l, (E)-3–(3-methoxy-4-((3-methoxybenzyl)oxy)phenyl)-N-(2-((1,2,3,4-tetrahydroacridin-9-yl)amino)ethyl)acrylamide]: in series [1], the “SI (selectivity index, AChE IC50/BuChE IC50)” value came to 0.7. The IC50 is 143 ± 40.1 nM in series [1] and 195 ± 16.5 nM in series [2].

Take `COc1ccc(COc2ccc(/C=C/C(=O)NCCNc3c4c(nc5ccccc35)CCCC4)cc2OC)cc1` [Compound 10m, (E)-3–(3-methoxy-4-((4-methoxybenzyl)oxy)phenyl)-N-(2-((1,2,3,4-tetrahydroacridin-9-yl)amino)ethyl)acrylamide]: in series [1], the “SI (selectivity index, AChE IC50/BuChE IC50)” value is on record as 0.6 and the IC50 was found to be 75.5 ± 12.8 nM. This compound also returned an IC50 in series [2] of 134 ± 11.1 nM.

As to `Nc1c2c(nc3ccccc13)CCCC2` [Tacrine], in series [3], the Distance to target was 725.64 ± 165.15 cm. For the same compound, the “Speed in virtual platform” value in series [3] was determined as 15.78 ± 1.03 cm/s. Besides, the Latency to target in series [3] (probe trial) came out at 25.85 ± 5.52 s. The ALT in the series on adult male ICR mice (8 h after i.g. administration) turned out to be 31.8 ± 2.0 U/L; in the series on adult male ICR mice (22 h after i.g. administration) it was 25.4 ± 2.8 U/L; with adult male ICR mice (36 h after i.g. administration) it was 25.1 ± 2.7 U/L. The figures for the AST in the series on adult male ICR mice (8 h after i.g. administration), with adult male ICR mice (22 h after i.g. administration) and in the series on adult male ICR mice (36 h after i.g. administration) were 133.7 ± 9.0 U/L, 124.3 ± 12.1 U/L and 112.4 ± 11.4 U/L, respectively. In addition, the “Cell viability (% of vehicle)” value with HepG2 cells (HepG2, 25 µM) was 106.2 ± 2.3 % of vehicle; with HepG2 cells (HepG2, 125 µM), 97.2 ± 2.9 % of vehicle; in the series with HepG2 cells (HepG2, 250 µM) it was 58.9 ± 0.7 % of vehicle; in the series on HepG2 cells (HepG2, 500 µM), 22.7 ± 1.6 % of vehicle.
